Reference: ChEMBL document CHEMBL5604063, “ASAP - DENV-2 NS2B-NS3 protease fluorescence dose response” (2024)
“And” between values parts separate entries of the source, which are not always exact repeats. Equal values may be shown once.

Molecular target: Genome polyprotein (dengue virus type 2, UniProt P29990)
Format: functional, Thailand/16681/1984

Sequence of Genome polyprotein (P29990 1346-1475 limits assumed): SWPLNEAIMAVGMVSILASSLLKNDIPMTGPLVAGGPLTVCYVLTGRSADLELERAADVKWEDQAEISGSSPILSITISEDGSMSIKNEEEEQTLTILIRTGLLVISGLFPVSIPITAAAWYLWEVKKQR
Sequence of Genome polyprotein (P29990 1476-2093 limits assumed): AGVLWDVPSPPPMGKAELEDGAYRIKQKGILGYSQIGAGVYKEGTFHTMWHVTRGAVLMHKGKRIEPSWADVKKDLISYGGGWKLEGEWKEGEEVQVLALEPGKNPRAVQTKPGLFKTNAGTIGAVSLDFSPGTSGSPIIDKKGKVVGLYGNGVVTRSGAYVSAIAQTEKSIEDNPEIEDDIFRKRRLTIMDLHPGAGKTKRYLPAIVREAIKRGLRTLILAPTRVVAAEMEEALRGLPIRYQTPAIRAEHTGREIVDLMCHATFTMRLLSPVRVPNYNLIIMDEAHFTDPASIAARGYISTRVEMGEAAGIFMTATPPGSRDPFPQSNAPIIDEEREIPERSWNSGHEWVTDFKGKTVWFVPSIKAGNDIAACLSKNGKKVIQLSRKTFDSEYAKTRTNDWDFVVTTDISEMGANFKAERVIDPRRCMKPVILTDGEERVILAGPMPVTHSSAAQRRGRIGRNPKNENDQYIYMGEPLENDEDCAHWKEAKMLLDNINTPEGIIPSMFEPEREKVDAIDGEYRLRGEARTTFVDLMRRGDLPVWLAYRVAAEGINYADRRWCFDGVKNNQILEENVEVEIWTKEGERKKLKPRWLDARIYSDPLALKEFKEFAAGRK

## NCc1cccc(NC(=O)[C@H](NS(=O)(=O)c2cccc(Cl)c2)c2ccc(OCc3ccccc3)cc2)c1
  IC50: > 99.5 µM

## O=C(O)c1cc(Cl)ccc1S(=O)(=O)NC1CCN(Cc2ccc(F)c(F)c2)CC1
  IC50: > 99.5 µM

## CCN1CCN(c2ccc(NS(=O)(=O)c3ccc(Cl)cc3C(=O)O)cc2)CC1
  IC50: > 99.5 µM

## O=C(O)c1cc(Cl)ccc1S(=O)(=O)Nc1ccc(N2CCCCC2)c(Cl)c1
  IC50: 71.6 µM

## NCc1cccc(NC(=O)[C@@H]2C[C@@H]3CC[C@H]2N3C(=O)OCc2ccccc2)c1
  IC50: > 99.5 µM

## CCCNC(=O)Cn1ccnc(N2CC[C@H](CO)C2)c1=O
  IC50: > 99.5 µM

## COc1cc(C(=O)O)c(S(=O)(=O)Nc2ccc(Oc3ccccc3Cl)cc2)cc1F
  IC50: 30.3 µM

## NCc1ccc(CNC(=O)c2cc(Cl)cc(NC(=O)OCc3ccccc3)c2)cc1
  IC50: > 99.5 µM

## CN(C)Cc1cccc(-c2ccc(S(=O)(=O)Nc3ccc(Cl)cc3C(=O)O)cc2)c1
  IC50: > 99.5 µM

## O=C(O)c1cc(Cl)ccc1S(=O)(=O)NC1CCN(c2ccc(C(F)(F)F)cn2)CC1
  IC50: > 99.5 µM

## NCc1cccc(NC(=O)[C@@]23C[C@@H](NC(=O)OCc4ccccc4)C[C@@H]2C3)c1
  IC50: > 99.5 µM

## O=C(O)Cc1cc(NS(=O)(=O)c2ccc(Oc3ccccc3Cl)cc2)ccc1Cl
  IC50: 96.1 µM

## CCC(=O)N1CCc2ccc(NS(=O)(=O)c3ccc(Cl)cc3C(=O)O)cc21
  IC50: > 99.5 µM

## NCc1cccc(NC(=O)[C@H](NS(=O)(=O)C2CCCCC2)c2ccc(OCc3ccccc3)cc2)c1
  IC50: > 99.5 µM

## Cc1nn(C)cc1-c1ccc(S(=O)(=O)Nc2ccc(Cl)cc2C(=O)O)cc1
  IC50: 85.4 µM

## NCc1cccc(NC(=O)C[C@@H](NC(=O)OCc2ccccc2)c2ccc3c(c2)OCO3)c1
  IC50: > 99.5 µM

## O=C(O)c1cc(Cl)ccc1S(=O)(=O)N[C@H]1CCn2c(nnc2C(F)(F)F)C1
  IC50: > 99.5 µM

## O=C(Nc1ccc(NS(=O)(=O)c2ccc(Cl)cc2C(=O)O)cc1)c1ccccc1
  IC50: > 99.5 µM

## COc1ccc(N2CCC(NS(=O)(=O)c3ccc(Cl)cc3C(=O)O)CC2)cc1
  IC50: > 99.5 µM

## O=C(O)c1cc(Cl)ccc1S(=O)(=O)N[C@H]1CC[C@@H](Oc2ccccc2)CC1
  IC50: > 99.5 µM

## NCc1cccc(NC(=O)[C@H](NS(=O)(=O)CC2CCC2)c2ccc(OCc3ccccc3)cc2)c1
  IC50: > 99.5 µM

## CCn1ccnc(N2CCC[C@H]2C(=O)O)c1=O
  IC50: > 99.5 µM

## COc1ccc(NS(=O)(=O)c2ccc(Cl)cc2C(=O)O)cc1-n1nnnc1C
  IC50: > 99.5 µM

## NCc1cccc(NC(=O)[C@H](NC(=O)Cc2ccccc2)c2ccc(OCc3ccccc3)cc2)c1
  IC50: 32.8 µM and 32.1 µM

## O=C(O)c1cc(Cl)ccc1NS(=O)(=O)c1ccc(-c2ccccc2Cl)cc1
  IC50: 6.93 µM

## O=C(O)c1cc(Cl)ccc1S(=O)(=O)NC1CCN(c2ncnc3c2CCC3)CC1
  IC50: > 99.5 µM

## Cn1ccnc(N2CCC(NS(=O)(=O)c3ccc(Cl)cc3C(=O)O)CC2)c1=O
  IC50: > 99.5 µM

## O=C(O)c1cc(Cl)ccc1S(=O)(=O)NC1CCN(S(=O)(=O)Cc2ccccc2)CC1
  IC50: > 99.5 µM

## NCc1cccc(NC(=O)c2cc(NC(=O)OCc3ccccc3)c(=O)n3c2CCCC3)c1
  IC50: > 99.5 µM

## COc1ncccc1-c1cccc([C@H](NC(=O)OCc2ccccc2)C(=O)Nc2cccc(CN)c2)c1
  IC50: > 99.5 µM

## O=C(O)c1cc(Cl)ccc1NS(=O)(=O)c1ccc(-c2ccncc2)cc1
  IC50: > 99.5 µM

## O=C(O)c1cc(Cl)ccc1S(=O)(=O)Nc1ccc(CCN2CCCC2)cc1
  IC50: > 99.5 µM

## Cc1cc(N2CCCCC2)ccc1NS(=O)(=O)c1ccc(Cl)cc1C(=O)O
  IC50: > 99.5 µM

## O=C(O)c1cc(Cl)ccc1NS(=O)(=O)c1ccc(-c2cncs2)cc1
  IC50: 75.3 µM

## NCc1cccc(NC(=O)C[C@@H](NC(=O)OCc2ccccc2)C2CCCCC2)c1
  IC50: 45.2 µM and 44.4 µM

## NCc1cccc(NC(=O)[C@H](NC(=O)c2ccns2)c2ccc(OCc3ccccc3)cc2)c1
  IC50: > 99.5 µM

## COc1ccc(NS(=O)(=O)c2ccc(Cl)cc2C(=O)O)cc1N1CCCC1=O
  IC50: > 99.5 µM

## O=C(O)c1cc(Cl)ccc1S(=O)(=O)Nc1ccc(F)c(N2CCNC2=O)c1
  IC50: > 99.5 µM

## O=C(O)c1cc(Cl)ccc1NS(=O)(=O)c1ccc(-c2ccccc2F)cc1
  IC50: 10.1 µM

## O=C(O)c1cc(Cl)ccc1S(=O)(=O)Nc1ccc(N2CCCS2(=O)=O)cc1
  IC50: > 99.5 µM

## Cc1cc(N2CCC(NS(=O)(=O)c3ccc(Cl)cc3C(=O)O)CC2)nc(C)n1
  IC50: > 99.5 µM

## O=C(Cn1ccnc(N2CC[C@H](CO)C2)c1=O)Nc1ccccc1
  IC50: > 99.5 µM

## NCc1cccc(NC(=O)C[C@@H]2[C@H]3CC[C@H](C3)N2C(=O)OCc2ccccc2)c1
  IC50: > 99.5 µM

## NCc1cccc(NC(=O)[C@H](NC(=O)COc2ccccc2)c2ccc(OCc3ccccc3)cc2)c1
  IC50: 55.2 µM

## CCn1c(=O)c(N2CC[C@H]3[C@H]2[C@H]3C(F)(F)F)nc2ccccc21
  IC50: > 99.5 µM

## Cn1cc(CCOc2ccc([C@@H](NC(=O)OCc3ccccc3)C(=O)Nc3cccc(CN)c3)cc2)nn1
  IC50: > 99.5 µM

## NCCc1cccc(NC(=O)c2cc(Cl)cc(NC(=O)OCc3ccccc3)c2)c1
  IC50: 49.7 µM and 44 µM

## COC(=O)Cc1ccccc1-c1ccc(S(=O)(=O)Nc2ccc(Cl)cc2C(=O)O)cc1
  IC50: 35.5 µM

## N#Cc1ccc(S(=O)(=O)Nc2ccc(Oc3ccccc3Cl)cc2)c(C(=O)O)c1
  IC50: 55.7 µM

## O=C(O)c1cc(Cl)ccc1S(=O)(=O)Nc1ccc(Oc2ccccn2)cc1
  IC50: > 99.5 µM

## O=C(O)c1cc(Cl)ccc1S(=O)(=O)Nc1ccc(N2CCCCC2)c(F)c1
  IC50: > 99.5 µM

## Cc1cc(C)cc(C(=O)N2CCC(NS(=O)(=O)c3ccc(Cl)cc3C(=O)O)CC2)c1
  IC50: > 99.5 µM

## O=C(O)c1cc(Cl)ccc1S(=O)(=O)Nc1ccc(S(=O)(=O)N2CCCCC2)cc1
  IC50: > 99.5 µM

## Cc1ccc(S(=O)(=O)N2CCC(NS(=O)(=O)c3ccc(Cl)cc3C(=O)O)CC2)cc1
  IC50: > 99.5 µM

## CCC1([C@H](NC(=O)OCc2ccccc2)C(=O)Nc2cccc(CN)c2)CCCCC1
  IC50: > 99.5 µM

## CCOC1CC(S(=O)(=O)N[C@H](C(=O)Nc2cccc(CN)c2)c2ccc(OCc3ccccc3)cc2)C1 (stereo partly drawn)
  IC50: > 99.5 µM

## NCc1cccc(NC(=O)[C@H]2[C@@H]3CC[C@@H](C3)[C@H]2NC(=O)OCc2ccccc2)c1
  IC50: > 99.5 µM

## CCn1c(=O)c(N2CCC[C@@H]2c2cncn2C)nc2ccccc21
  IC50: > 99.5 µM

## CC(C)(C)OC(=O)NCc1cccc(NC(=O)[C@H](NC(=O)OCc2ccccc2)C2CCNCC2)c1
  IC50: > 99.5 µM

## N#Cc1ccccc1-c1ccc(S(=O)(=O)Nc2ccc(Cl)cc2C(=O)O)cc1
  IC50: 25.1 µM

## NCc1cccc(NC(=O)[C@H](NC(=O)CCc2ccccc2)c2ccc(OCc3ccccc3)cc2)c1
  IC50: 14.5 µM and 23.3 µM and 22.9 µM

## CSc1ccc([C@H](CC(=O)Nc2cccc(CN)c2)NC(=O)OCc2ccccc2)cc1
  IC50: 44.2 µM

## O=C(O)c1cc(Cl)ccc1S(=O)(=O)NC1CCN(CC2CCOCC2)CC1
  IC50: > 99.5 µM

## NCc1cccc(NC(=O)c2cc(NC(=O)OCc3ccccc3)cc3c2OC(F)(F)O3)c1
  IC50: > 99.5 µM

## Cc1cccc(N2CCC(NS(=O)(=O)c3ccc(Cl)cc3C(=O)O)CC2)n1
  IC50: > 99.5 µM

## O=C(O)c1cc(Cl)ccc1S(=O)(=O)Nc1ccc(N2CCCCCC2)cc1
  IC50: 55.2 µM

## c1ccc2sc(C3CCN([C@H]4Cc5[nH]c6ccccc6c5C4)CC3)nc2c1
  IC50: > 99.5 µM

## COc1ccc(NS(=O)(=O)c2ccc(Cl)cc2C(=O)O)cc1OC1CCCC1
  IC50: > 99.5 µM

## CCn1cc(C(=O)NCc2ccccc2)nc(N2CC[C@@H](CO)C2)c1=O
  IC50: > 99.5 µM

## CCOc1cc(N2CCN(C)CC2)ccc1NS(=O)(=O)c1ccc(Cl)cc1C(=O)O
  IC50: > 99.5 µM

## O=C(O)c1cc(Cl)c(F)cc1S(=O)(=O)Nc1ccc(Oc2ccccc2Cl)cc1
  IC50: 11.2 µM and 10.7 µM

## NCc1ccc(NC(=O)c2cc(Cl)cc(NC(=O)OCc3ccccc3)c2)cc1
  IC50: 51.5 µM

## O=C(O)c1cc(Cl)ccc1S(=O)(=O)NC1CCN(S(=O)(=O)c2ccc(I)cc2)CC1
  IC50: 81.7 µM

## COc1ccc(-c2cc(NS(=O)(=O)c3ccc(Cl)cc3C(=O)O)ccc2OC)cc1
  IC50: 48.8 µM

## O=C(O)c1cc(Cl)ccc1NS(=O)(=O)c1ccc(-c2cccc(F)c2F)cc1
  IC50: 8.82 µM

## O=C(O)c1cc(Cl)ccc1NS(=O)(=O)c1ccc(-c2ccc(F)cc2)cc1
  IC50: 12.5 µM

## CCN1C(=O)CCc2cc(NS(=O)(=O)c3ccc(Cl)cc3C(=O)O)ccc21
  IC50: > 99.5 µM

## CN(C(=O)OCc1ccccc1)[C@H](C(=O)Nc1cccc(CN)c1)c1ccc(OCc2ccccc2)cc1
  IC50: 43.8 µM

## O=C(O)c1cc(Cl)ccc1S(=O)(=O)NC1CCN(Cc2ccccn2)CC1
  IC50: > 99.5 µM

## CCCOc1ccc([C@@H](CC(=O)Nc2cccc(CN)c2)NC(=O)OCc2ccccc2)cc1
  IC50: 24.7 µM and 59.4 µM

## CN(C)c1cc(-c2ccc(S(=O)(=O)Nc3ccc(Cl)cc3C(=O)O)cc2)ccn1
  IC50: 87.6 µM

## CN1CC=C(c2ccc(S(=O)(=O)Nc3ccc(Cl)cc3C(=O)O)cc2)CC1
  IC50: > 99.5 µM

## O=C(O)c1cc(Cl)ccc1S(=O)(=O)N[C@H]1CCN(Cc2ccccc2)C2(CC2)C1
  IC50: > 99.5 µM

## CS(=O)(=O)c1ccc(-c2cccc([C@H](NC(=O)OCc3ccccc3)C(=O)Nc3cccc(CN)c3)c2)cn1
  IC50: > 99.5 µM

## CC1(NS(=O)(=O)c2ccc(Cl)cc2C(=O)O)CCN(c2ccccc2)CC1
  IC50: > 99.5 µM

## O=C(O)c1cc(Cl)ccc1S(=O)(=O)NC1CCN(C(=O)c2ccccc2C(F)(F)F)CC1
  IC50: > 99.5 µM

## NCc1cccc(NC(=O)[C@H](NC(=O)OCc2ccccc2)C2CCC(c3ccccc3)CC2)c1 (stereo partly drawn)
  IC50: 6.26 µM and 5.78 µM

## NCc1ccccc1NC(=O)c1cc(Cl)cc(NC(=O)OCc2ccccc2)c1
  IC50: > 99.5 µM

## COc1ccc(NS(=O)(=O)c2ccc(Cl)cc2C(=O)O)cc1S(=O)(=O)N1CCCC1
  IC50: > 99.5 µM

## Cc1cc(C)n(-c2ccc(NS(=O)(=O)c3ccc(Cl)cc3C(=O)O)cc2)n1
  IC50: > 99.5 µM

## O=C(O)c1cc(Cl)ccc1S(=O)(=O)N[C@H]1CC[C@H]2CN(Cc3ccccc3)C[C@H]2C1
  IC50: > 99.5 µM

## Cc1ncc(COc2ccc([C@H](NC(=O)OCc3ccccc3)C(=O)Nc3cccc(CN)c3)cc2)cn1
  IC50: > 99.5 µM

## CCCCN1Cc2ccc(NS(=O)(=O)c3ccc(Cl)cc3C(=O)O)cc2C1
  IC50: > 99.5 µM

## NS(=O)(=O)c1cccc(-c2ccc(S(=O)(=O)Nc3ccc(Cl)cc3C(=O)O)cc2)c1
  IC50: 30.6 µM

## O=C(O)c1cc(Cl)ccc1S(=O)(=O)NC1CCN(c2nc(C3CC3)cc(C(F)(F)F)n2)CC1
  IC50: 15.5 µM

## CCc1ccc(S(=O)(=O)N[C@@H](C(=O)Nc2cccc(CN)c2)c2ccc(OCc3ccccc3)cc2)cc1
  IC50: 92 µM

## NCc1cccc(NC(=O)c2cc(Br)cc(NC(=O)OCc3ccccc3)c2)c1
  IC50: 54.3 µM

## O=C(O)c1cc(Cl)ccc1S(=O)(=O)Nc1nn(Cc2ccccc2)cc1Cl
  IC50: > 99.5 µM
